Patent US20050197350A1, “Novel quinoline, tetrahydroquinazoline, and pyrimidine derivatives and methods of treatment related to the use thereof” (TAISHO PHARMACEUTICAL CO., LTD., priority 2003, published 2005)

These compounds were tested on MCH receptors (assay: MCH receptor activity class (method not given)). Details: activity class per percent of control at 10^-7 M or IC50.

Q: `CSc1ccc(Cl)c(C(=O)N[C@H]2CC[C@@H](Nc3nc4c(c(N(C)C)n3)CCCC4)CC2)c1` [compound 1056] was tested. Which class did it give?
A: 3 (Class 3 The value of percent of control at 10^−7 M was more than 60% or the value of IC50 was more than 200 nM.)

Q: How did the class turn out when `COc1cccc2cc(C(=O)N[C@H]3CC[C@@H](Nc4nc5c(c(N(C)C)n4)CCCC5)CC3)oc12` [compound 1057] was run?
A: 3 (Class 3 The value of percent of control at 10^−7 M was more than 60% or the value of IC50 was more than 200 nM.)

Q: `Cc1cccc(C(=O)N[C@H]2CC[C@@H](Nc3nc4c(c(N(C)C)n3)CCCC4)CC2)c1N` [compound 1058] was tested. Which class did it give?
A: 3 (Class 3 The value of percent of control at 10^−7 M was more than 60% or the value of IC50 was more than 200 nM.)

Q: With `C=CCSc1ncccc1C(=O)N[C@H]1CC[C@@H](Nc2nc3c(c(N(C)C)n2)CCCC3)CC1` [compound 1059] as the compound, how does the class read?
A: 3 (Class 3 The value of percent of control at 10^−7 M was more than 60% or the value of IC50 was more than 200 nM.)

Q: How did the class turn out when `CN(C)c1nc(N[C@H]2CC[C@@H](NC(=O)c3cc(C(C)(C)C)c(O)c(C(C)(C)C)c3)CC2)nc2c1CCCC2` [compound 1060] was run?
A: 3 (Class 3 The value of percent of control at 10^−7 M was more than 60% or the value of IC50 was more than 200 nM.)

Q: How did the class turn out when `CN(C)c1nc(N[C@H]2CC[C@@H](CNC(=O)c3ccc(Br)s3)CC2)nc2c1CCCC2` [compound 1061] was run?
A: 3 (Class 3 The value of percent of control at 10^−7 M was more than 60% or the value of IC50 was more than 200 nM.)

Q: With `CN(C)c1nc(N[C@H]2CC[C@@H](CNC(=O)Cc3c(Cl)ccc(Cl)c3Cl)CC2)nc2c1CCCC2` [compound 1062] as the compound, how does the class read?
A: 2 (Class 2: The value of percent of control at 10^−7 M was from 40% to 60% or the value of IC′50 was from 50 nM to 200 nM.)

Q: Which class does the source give for `CN(C)c1nc(N[C@H]2CC[C@@H](CNC(=O)Cc3ccc(F)cc3Cl)CC2)nc2c1CCCC2` [compound 1063] here?
A: 3 (Class 3 The value of percent of control at 10^−7 M was more than 60% or the value of IC50 was more than 200 nM.)

Q: How did the class turn out when `CN(C)c1nc(N[C@H]2CC[C@@H](CNC(=O)c3ccc(-c4ccc(Cl)cc4[N+](=O)[O-])o3)CC2)nc2c1CCCC2` [compound 1064] was run?
A: 3 (Class 3 The value of percent of control at 10^−7 M was more than 60% or the value of IC50 was more than 200 nM.)

Q: Which class does the source give for `CN(C)c1nc(N[C@H]2CC[C@@H](CNC(=O)c3ccc(Cl)s3)CC2)nc2c1CCCC2` [compound 1065] here?
A: 3 (Class 3 The value of percent of control at 10^−7 M was more than 60% or the value of IC50 was more than 200 nM.)

Q: `CN(C)c1nc(N[C@H]2CC[C@@H](CNC(=O)CCc3ccccc3O)CC2)nc2c1CCCC2` [compound 1067] was tested. Which class did it give?
A: 3 (Class 3 The value of percent of control at 10^−7 M was more than 60% or the value of IC50 was more than 200 nM.)

Q: How did the class turn out when `CN(C)c1nc(N[C@H]2CC[C@@H](CNC(=O)c3ccc(I)o3)CC2)nc2c1CCCC2` [compound 1068] was run?
A: 3 (Class 3 The value of percent of control at 10^−7 M was more than 60% or the value of IC50 was more than 200 nM.)

Q: With `CN(C)c1nc(N[C@H]2CC[C@@H](CNC(=O)Cc3ccccc3I)CC2)nc2c1CCCC2` [compound 1069] as the compound, how does the class read?
A: 3 (Class 3 The value of percent of control at 10^−7 M was more than 60% or the value of IC50 was more than 200 nM.)

Q: `CN(C)c1nc(N[C@H]2CC[C@@H](CNC(=O)/C=C/c3cccc([N+](=O)[O-])c3)CC2)nc2c1CCCC2` [compound 1070] was tested. Which class did it give?
A: 2 (Class 2: The value of percent of control at 10^−7 M was from 40% to 60% or the value of IC′50 was from 50 nM to 200 nM.)

Q: For `CN(C)c1nc(N[C@H]2CC[C@@H](CNC(=O)c3ccccc3Cc3ccccc3)CC2)nc2c1CCCC2` [compound 1072], which class is on record?
A: 3 (Class 3 The value of percent of control at 10^−7 M was more than 60% or the value of IC50 was more than 200 nM.)

Q: `CN(C)c1nc(N[C@H]2CC[C@@H](CNC(=O)C(c3ccc(Cl)cc3)c3ccc(Cl)cc3)CC2)nc2c1CCCC2` [compound 1073] was tested. Which class did it give?
A: 3 (Class 3 The value of percent of control at 10^−7 M was more than 60% or the value of IC50 was more than 200 nM.)

Q: With `Cc1ccc(-c2ccc(C(=O)NC[C@H]3CC[C@@H](Nc4nc5c(c(N(C)C)n4)CCCC5)CC3)o2)c([N+](=O)[O-])c1` [compound 1074] as the compound, how does the class read?
A: 3 (Class 3 The value of percent of control at 10^−7 M was more than 60% or the value of IC50 was more than 200 nM.)

Q: For `CN(C)c1nc(N[C@H]2CC[C@@H](CNC(=O)c3ccc([N+](=O)[O-])s3)CC2)nc2c1CCCC2` [compound 1075], which class is on record?
A: 3 (Class 3 The value of percent of control at 10^−7 M was more than 60% or the value of IC50 was more than 200 nM.)

Q: With `Cc1cc(C(=O)NC[C@H]2CC[C@@H](Nc3nc4c(c(N(C)C)n3)CCCC4)CC2)ccc1[N+](=O)[O-]` [compound 1076] as the compound, how does the class read?
A: 3 (Class 3 The value of percent of control at 10^−7 M was more than 60% or the value of IC50 was more than 200 nM.)

Q: `COc1cc(C(=O)NC[C@H]2CC[C@@H](Nc3nc4c(c(N(C)C)n3)CCCC4)CC2)ccc1[N+](=O)[O-]` [compound 1077] was tested. Which class did it give?
A: 3 (Class 3 The value of percent of control at 10^−7 M was more than 60% or the value of IC50 was more than 200 nM.)

Q: With `CN(C)c1nc(N[C@H]2CC[C@@H](CNC(=O)c3cn(Cc4ccccc4)c4ccccc34)CC2)nc2c1CCCC2` [compound 1078] as the compound, how does the class read?
A: 3 (Class 3 The value of percent of control at 10^−7 M was more than 60% or the value of IC50 was more than 200 nM.)

Q: Which class does the source give for `CN(C)c1nc(N[C@H]2CC[C@@H](CNC(=O)CC3=CCCCC3)CC2)nc2c1CCCC2` [compound 1079] here?
A: 3 (Class 3 The value of percent of control at 10^−7 M was more than 60% or the value of IC50 was more than 200 nM.)

Q: How did the class turn out when `CN(C)c1nc(N[C@H]2CC[C@@H](CNC(=O)Cc3ccccc3OC(F)(F)F)CC2)nc2c1CCCC2` [compound 1081] was run?
A: 3 (Class 3 The value of percent of control at 10^−7 M was more than 60% or the value of IC50 was more than 200 nM.)

Q: `Cc1cc(C(=O)NC[C@H]2CC[C@@H](Nc3nc4c(c(N(C)C)n3)CCCC4)CC2)cc(C)c1OCc1ccccc1` [compound 1082] was tested. Which class did it give?
A: 3 (Class 3 The value of percent of control at 10^−7 M was more than 60% or the value of IC50 was more than 200 nM.)

Q: How did the class turn out when `CN(C)c1nc(N[C@H]2CC[C@@H](CNC(=O)C3c4ccccc4Oc4ccccc43)CC2)nc2c1CCCC2` [compound 1083] was run?
A: 3 (Class 3 The value of percent of control at 10^−7 M was more than 60% or the value of IC50 was more than 200 nM.)

Q: How did the class turn out when `CN(C)c1nc(N[C@H]2CC[C@@H](CNC(=O)Cc3csc4ccccc34)CC2)nc2c1CCCC2` [compound 1084] was run?
A: 3 (Class 3 The value of percent of control at 10^−7 M was more than 60% or the value of IC50 was more than 200 nM.)

Q: For `COc1cccc(OC)c1CN[C@H]1CC[C@@H](Nc2cc(N(C)C)c3ccccc3n2)CC1` [compound 1085], which class is on record?
A: 3 (Class 3 The value of percent of control at 10^−7 M was more than 60% or the value of IC50 was more than 200 nM.)

Q: How did the class turn out when `CCOc1ccccc1CN[C@H]1CC[C@@H](Nc2cc(N(C)C)c3ccccc3n2)CC1` [compound 1086] was run?
A: 3 (Class 3 The value of percent of control at 10^−7 M was more than 60% or the value of IC50 was more than 200 nM.)

Q: `CN(C)c1cc(N[C@H]2CC[C@@H](NCc3c[nH]c4ccccc34)CC2)nc2ccccc12` [compound 1087] was tested. Which class did it give?
A: 3 (Class 3 The value of percent of control at 10^−7 M was more than 60% or the value of IC50 was more than 200 nM.)

Q: Which class does the source give for `COc1ccc(OC)c(CN[C@H]2CC[C@@H](Nc3cc(N(C)C)c4ccccc4n3)CC2)c1` [compound 1088] here?
A: 3 (Class 3 The value of percent of control at 10^−7 M was more than 60% or the value of IC50 was more than 200 nM.)
